Reference: patent US20240207202A1, “COMBINATION THERAPIES TARGETING MITOCHONDRIAL BIOGENESIS FOR CANCER THERAPY” (The Wistar Institute of Anatomy and Biology, priority 2015, published 2024)

Assays:
Format in all cases: cell-based, human
[1] = test system: mitochondrial respiratory chain complex subunits; test: Expression of mitochondrial respiratory chain complex subunits in WM9 cells (qRT-PCR, RPPA, immunoblot)
Experimental: One μg total mRNA was reverse transcribed using a Maxima First Strand cDNA Synthesis Kit for qRT-PCR (Thermo Fisher). Fast SYBR® Green Master Mix (Life Technologies) was used with cDNA template and primers to evaluate the expression of target genes and GAPDH. Primers used were purchased from Integrated DNA Technologies. Amplifications were performed using an Applied Biosystems® 7500 Real-Time PCR System (Life Technologies). All experiments were performed in triplicate. Expression ratios of controls were normalized to 1. Please see Extended Experimental Procedures for the list of PCR primer sequences. The raw data of gene expression microarrays generated from Illumina Chips were normalized, background-corrected and summarized using the R package “lumi” (Du et al., 2008). […] To reduce false positives, the unexpressed probes were removed. The R package “limma” (Smyth, 2004, 2005) was employed for gene differential expression analysis, followed by multiple test correction by the Benjamini and Hochberg procedure (Benjamini and Hochberg, 1995). […] We also conducted GSEA as previously reported (Subramanian et al., 2005). For GSEA, we analyzed gene sets obtained from the Molecular Signatures Database (broadinstitute.org/gsea/msigdb/). The same differential expression analysis method was applied to RPPA data. Cells were washed with ice-cold PBS containing 100 μM Na3VO4 and scraped off culture dishes. After centrifugation, cell pellets were lysed in buffer containing 10 mM Tris-HCl, pH 7.8, 150 mM NaCl, 1 mM EDTA, 1% Nonidet P-40, 1 mM Na3VO4 and protease inhibitors (Roche complete protease inhibitor tablets). Lysates were cleared by micro-centrifugation and protein concentrations were determined with Protein Assay Dye Reagent Concentrate (Bio-Rad). For western blots, 25 μg of each lysate were run on 15-well 10% or 12% SDS-PAGE gels and transferred onto nitrocellulose membranes using a dye fast Trans-BlotR Turbo™ transfer system (Bio-Rad). Blots were blocked in SEA BLOCK Blocking Buffer (Thermo Scientific) diluted with 1×TBS at 1:1 ratio at room temperature for 1 h, incubated overnight with primary antibody at 4° C., stained with secondary antibodies conjugated to IRDye® Infrared Dyes (LI-COR Biosciences) and then visualized using an Odyssey flatbed scanner (LI-COR Biosciences).

[2] = test system: HKI, HKII, PDHE1, PDK1, PDK2, LDHA, PKM1, GLUT1 and GLUT3; test: Expression of glycolysis regulators in WM9 cells (qRT-PCR, immunoblot); conditions: WM9, Gamitrinib combined with PLX4720
Experimental: One μg total mRNA was reverse transcribed using a Maxima First Strand cDNA Synthesis Kit for qRT-PCR (Thermo Fisher). Fast SYBR® Green Master Mix (Life Technologies) was used with cDNA template and primers to evaluate the expression of target genes and GAPDH. Primers used were purchased from Integrated DNA Technologies. Amplifications were performed using an Applied Biosystems® 7500 Real-Time PCR System (Life Technologies). All experiments were performed in triplicate. Expression ratios of controls were normalized to 1. Please see Extended Experimental Procedures for the list of PCR primer sequences.
(§1) Cells were washed with ice-cold PBS containing 100 μM Na3VO4 and scraped off culture dishes. After centrifugation, cell pellets were lysed in buffer containing 10 mM Tris-HCl, pH 7.8, 150 mM NaCl, 1 mM EDTA, 1% Nonidet P-40, 1 mM Na3VO4 and protease inhibitors (Roche complete protease inhibitor tablets). Lysates were cleared by micro-centrifugation and protein concentrations were determined with Protein Assay Dye Reagent Concentrate (Bio-Rad). For western blots, 25 μg of each lysate were run on 15-well 10% or 12% SDS-PAGE gels and transferred onto nitrocellulose membranes using a dye fast Trans-BlotR Turbo™ transfer system (Bio-Rad). […]

autophagic flux = test: Autophagic flux in WM9 cells expressing mCherry-eGFP-LC3B; conditions: WM9, 72 h, Gamitrinib 1 μM or Spautin-1 10 μM combined with PLX4720 10 μM/PD0325901 1 μM
Experimental: WM9 cells stably expressing pLVO-Puro-mCherry-eGFP-LC3 were analyzed with a BD LSR II flow cytometer. Fluorescence of mCherry and eGFP was recorded to derive the ratio of mCherryheight over eGFP-height. This ratio indicates the autophagic flux.
Briefly, autophagic flux was assessed by FACS analysis of WM9 cells expressing the mCherry-eGFPLC3B construct that were transfected with the indicated siRNAs targeting autophagy and ER stress response and treated for 72 h with DMSO or the combination of PLX4720 at 10 μM and PD0325901 at 1 μM. The data represent the average of 2 biological replicates. Induction of apoptosis and cell death was assessed by PSVue 643 staining in WM9 cells expressing the mCherry-eGFP-LC3B construct transfected with the indicated siRNAs targeting autophagy and ER stress response and treated for 72 h with DMSO or the combination of PLX4720 at 10 μM and PD0325901 at 1 μM. Autophagic flux was assessed by FACS analysis of WM9 cells expressing the mCherry-eGFPLC3B construct treated for 72 h with Gamitrinib at 1 μM or Spautin-1 at 10 μM in combination with PLX4720 at 10 μM/PD0325901 at 1 μM. Cells treated with DMSO were used as the control for setting up the gate. Induction of apoptosis and cell death was assessed by PSVue 643 staining in WM9 cells treated for 72 h with Gamitrinib at 1 μM or Spautin-1 at 10 μM in combination with PLX4720 at 10 μM/PD0325901 at 1 μM. […]

[3] = test system: LC3B-II, phospho-S6, phospho-AMPKα; test: RPPA and immunoblotting of autophagy and metabolic stress markers in WM9 cells
Text: The raw data of gene expression microarrays generated from Illumina Chips were normalized, background-corrected and summarized using the R package “lumi” (Du et al., 2008). Probes below background level (detection P-value <0.01) were excluded and differential expression was identified with Bayes-adjusted variance analysis using the Bioconductor Limma package. To reduce false positives, the unexpressed probes were removed. The R package “limma” (Smyth, 2004, 2005) was employed for gene differential expression analysis, followed by multiple test correction by the Benjamini and Hochberg procedure (Benjamini and Hochberg, 1995). […] We also conducted GSEA as previously reported (Subramanian et al., 2005). For GSEA, we analyzed gene sets obtained from the Molecular Signatures Database (broadinstitute.org/gsea/msigdb/). The same differential expression analysis method was applied to RPPA data.
as §1, with “(Bio-Rad).” for “(Bio-Rad). For western blots, 25 μg of each lysate were run on 15-well 10% or 12% SDS-PAGE gels and transferred onto nitrocellulose membranes using a dye fast Trans-BlotR Turbo™ transfer system (Bio-Rad).”

Gamitrinib
expression of mitochondrial respiratory chain complex subunits (SDHA, SDHB, UQCRC2, ATP5H, cyclophilin D) induced by MAPK inhibitors ([1]; WM9, 72 h, Gamitrinib 1 μM with PLX4720 10 μM or PLX4720 and PD0325901 1 μM, RPPA): significant reduction
5 mitochondrial respiratory chain complex subunits ([1]; WM9, immunoblotting, 72 h time course): down-regulated
expression of key regulators of aerobic glycolysis, mRNA and protein [2]: substantially down-regulated
autophagic flux (autophagic flux): decreased the autophagic flux
LC3B-II, phospho-S6 and phospho-AMPKα [3]: down-regulated LC3B-II and phospho-S6 and up-regulated phospho-AMPKα
